Where “and” joins values, the source holds several entries; their conditions need not be identical. Equal values may be shown once. Read-outs that look alike come from different tables or passages of the source.
Columns and labels:
[1] = molecular target: EGFR (pY1068) in A431 cell (WT) (Homo sapiens (Human), UniProt P00533); assay: pEGFR sandwich ELISA assay (Examples B-2, B-3, Table 21); format: cell-based; settings: read-out: IC50 (uM) A431 WT (EGF stimulation)
human wt JAK3 = human wt JAK3 (Homo sapiens (Human), UniProt P52333); assay: ClariCELL JAK3 cell-based assay; settings: Cell-based Assays (CAI) IC50(μM) JAK3, HEK293 transfected with human wt JAK3; 2 hours; repeat runs
Source text: (§3) Protocol for ClariCELL™ JAK3 and BTK Assays is described below: • HEK293 human embryonic kidney cells were transiently transfected with either human wt BTK, human wt JAK3, or kinase-dead human JAK3 (for JAK3 negative controls).

human wt BTK = human wt BTK (Homo sapiens (Human), UniProt Q06187); assay: ClariCELL BTK cell-based assay; settings: Cell-based Assays (CAI) IC50(μM) BTK, HEK293 transfected with human wt BTK; 2 hours; repeat runs
Source text: as §3

BTK = BTK (Homo sapiens (Human), UniProt Q06187); assay: HotSpot kinase assay; format: biochemical; settings: Enzymatic Assays; Table 22; unit inferred
Method: (§1) Assay Description. In vitro profiling protein kinases was performed using the “HotSpot” assay platform. Briefly, specific kinase/substrate pairs along with required cofactors were prepared in reaction buffer. Compounds were delivered into the reaction, followed 15-20 minutes later by addition of a mixture of ATP (Sigma, St. Louis Mo.) and ^33P ATP (Perkin Elmer, Waltham Mass.) to a final concentration of 10 μM. […] IC50 values and curve fits were obtained using Prism (GraphPad Software).
(§2) Reaction Conditions: Buffer Conditions: 20 mM Hepes (pH 7.5), 10 mM MgCl2, 1 mM EGTA, 0.02% Brij35, 0.02 mg/mL BSA, 0.1 mM Na3VO4, 2 mM DTT, and 1% DMSO. ATP concentration: 10 μM. Reaction Time: 2 hours. […] All kinase reactions were performed at 10 uM ATP. Test concentrations are provided below in molar units (M).

JAK2 = JAK2 (Homo sapiens (Human), UniProt O60674); assay: HotSpot kinase assay; format: biochemical; settings: Enzymatic Assays; Table 22; unit inferred
Method: as §1, §2

JAK3 = JAK3 (Homo sapiens (Human), UniProt P52333); assay: HotSpot kinase assay; format: biochemical; settings: Enzymatic Assays; Table 22; unit inferred
Method: as §1, §2

[2] = molecular target: EGFR (pY1068) in H1975 cell (T790M/L858R) (Homo sapiens (Human), UniProt P00533, L858R/T790M); assay: pEGFR sandwich ELISA assay (Examples B-2, B-3, Table 21); format: cell-based; settings: for IC50: read-out: IC50 (uM) H1975 T790M/L858R (no EGF stimulation)
[3] = test system: A431 (WT) human skin epidermoid carcinoma xenograft; settings: for Tumor volume: 100 mpk PO QD
Method: Each mouse was inoculated subcutaneously at the right flank with H1975 cells (5×10^6), HCC827 (5×10^6) and A431 (5×10^6) respectively in 0.2 ml of medium for tumor development. The treatments were started when the tumor size reached approximately 200-250 mm^3. The testing articles were administrated to the mice according to the predetermined regimen as shown in the experimental design table.
All the procedures related to animal handling, care and the treatment in this study were performed according to the guidelines approved by the Institutional Animal Care and Use Committee (IACUC) following the guidance of the Association for Assessment and Accreditation of Laboratory Animal Care (AAALAC). At the time of routine monitoring, the animals were checked for any effects of tumor growth and treatments on normal behavior such as mobility, food and water consumption (by observation), body weight gain/loss (body weights were measured twice weekly), eye/hair matting and any other abnormal effect. Death and observed clinical signs were recorded on the basis of the numbers of animals within each subset.
The major endpoint was to see if the tumor growth can be delayed or mice can be cured. Tumor size was measured twice weekly in two dimensions using a caliper, and the volume was expressed in mm^3 using the formula: V=0.5 a×b^2 where a and b are the long and short diameters of the tumor, respectively. The tumor size was then used for calculations of both T-C and T/C values. T-C was calculated with T as the median time (in days) required for the treatment group tumors to reach a predetermined size (e.g., 1,000 mm^3), and C as the median time (in days) for the control group tumors to reach the same size. The T/C value (in percent) was an indication of antitumor effectiveness; T and C were the mean volume of the treated and control groups, respectively, on a given day. Tumor weight was measured at the study termination. The T/C value (in percent) was calculated where T and C were the mean tumor weights of the treated and control groups, respectively.

Sequence of EGFR (pY1068) in A431 cell (WT) (P00533 25-1210): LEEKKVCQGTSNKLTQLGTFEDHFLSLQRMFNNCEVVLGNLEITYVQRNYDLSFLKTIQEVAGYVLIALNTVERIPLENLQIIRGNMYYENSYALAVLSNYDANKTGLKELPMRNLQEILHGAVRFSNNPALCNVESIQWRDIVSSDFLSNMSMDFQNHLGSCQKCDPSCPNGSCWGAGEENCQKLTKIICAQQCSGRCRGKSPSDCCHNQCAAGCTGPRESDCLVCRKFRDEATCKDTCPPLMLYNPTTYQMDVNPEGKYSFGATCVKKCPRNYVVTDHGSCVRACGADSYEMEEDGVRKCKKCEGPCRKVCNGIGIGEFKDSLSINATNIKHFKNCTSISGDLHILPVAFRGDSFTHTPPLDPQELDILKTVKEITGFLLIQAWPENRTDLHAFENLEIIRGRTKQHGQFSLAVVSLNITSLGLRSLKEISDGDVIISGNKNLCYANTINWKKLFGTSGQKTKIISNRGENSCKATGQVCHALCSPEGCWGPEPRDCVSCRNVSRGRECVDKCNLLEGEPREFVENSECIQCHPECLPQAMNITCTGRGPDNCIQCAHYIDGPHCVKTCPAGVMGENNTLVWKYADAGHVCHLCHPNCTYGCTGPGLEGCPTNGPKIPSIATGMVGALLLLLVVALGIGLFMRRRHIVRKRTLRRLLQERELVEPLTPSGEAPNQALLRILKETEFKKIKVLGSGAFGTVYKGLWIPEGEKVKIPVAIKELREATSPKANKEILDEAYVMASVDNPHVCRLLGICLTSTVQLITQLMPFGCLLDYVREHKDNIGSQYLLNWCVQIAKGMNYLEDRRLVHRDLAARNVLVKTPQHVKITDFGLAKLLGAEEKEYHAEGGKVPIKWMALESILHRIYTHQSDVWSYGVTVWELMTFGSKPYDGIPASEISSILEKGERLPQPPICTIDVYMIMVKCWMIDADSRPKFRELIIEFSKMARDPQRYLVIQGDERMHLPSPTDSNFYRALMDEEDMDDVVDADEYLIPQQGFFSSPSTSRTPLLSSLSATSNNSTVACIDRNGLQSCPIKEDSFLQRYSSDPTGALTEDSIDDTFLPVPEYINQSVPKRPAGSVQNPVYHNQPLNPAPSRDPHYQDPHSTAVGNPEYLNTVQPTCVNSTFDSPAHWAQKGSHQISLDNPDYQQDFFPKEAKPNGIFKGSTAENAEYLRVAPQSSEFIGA
Sequence of EGFR (pY1068) in H1975 cell (T790M/L858R) (P00533 25-1210 T790M/L858R): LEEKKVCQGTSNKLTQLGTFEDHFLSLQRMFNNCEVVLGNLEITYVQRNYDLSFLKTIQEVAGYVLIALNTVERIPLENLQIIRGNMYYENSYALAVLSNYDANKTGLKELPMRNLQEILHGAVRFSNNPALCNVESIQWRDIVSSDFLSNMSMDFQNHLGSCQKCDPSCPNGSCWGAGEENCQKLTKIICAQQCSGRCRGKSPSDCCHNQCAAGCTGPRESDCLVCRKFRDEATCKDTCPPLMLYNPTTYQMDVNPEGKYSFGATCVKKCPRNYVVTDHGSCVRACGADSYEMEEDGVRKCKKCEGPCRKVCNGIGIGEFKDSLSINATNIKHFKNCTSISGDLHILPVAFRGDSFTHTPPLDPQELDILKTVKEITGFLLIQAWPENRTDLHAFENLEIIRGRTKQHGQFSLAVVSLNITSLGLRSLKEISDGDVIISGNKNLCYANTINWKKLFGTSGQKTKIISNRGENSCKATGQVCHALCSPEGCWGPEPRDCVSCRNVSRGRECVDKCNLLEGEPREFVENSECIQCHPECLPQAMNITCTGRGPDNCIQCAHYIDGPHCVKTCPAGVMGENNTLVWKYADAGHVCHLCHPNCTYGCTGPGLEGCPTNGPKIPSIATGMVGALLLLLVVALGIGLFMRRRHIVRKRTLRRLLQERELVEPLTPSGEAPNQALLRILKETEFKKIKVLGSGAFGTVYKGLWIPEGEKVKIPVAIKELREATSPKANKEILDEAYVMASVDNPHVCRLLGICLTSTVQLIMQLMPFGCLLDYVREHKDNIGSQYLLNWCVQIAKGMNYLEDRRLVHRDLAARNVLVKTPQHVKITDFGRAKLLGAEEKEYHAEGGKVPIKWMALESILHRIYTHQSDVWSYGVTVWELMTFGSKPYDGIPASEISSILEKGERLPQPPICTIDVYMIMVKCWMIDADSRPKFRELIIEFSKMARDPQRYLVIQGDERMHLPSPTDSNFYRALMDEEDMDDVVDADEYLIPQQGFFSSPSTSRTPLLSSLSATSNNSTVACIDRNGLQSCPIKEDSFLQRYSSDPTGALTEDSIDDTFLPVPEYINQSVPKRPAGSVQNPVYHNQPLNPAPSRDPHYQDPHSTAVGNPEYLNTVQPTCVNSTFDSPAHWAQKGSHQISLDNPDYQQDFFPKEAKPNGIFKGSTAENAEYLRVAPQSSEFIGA
Sequence of human wt BTK (Q06187 whole entry): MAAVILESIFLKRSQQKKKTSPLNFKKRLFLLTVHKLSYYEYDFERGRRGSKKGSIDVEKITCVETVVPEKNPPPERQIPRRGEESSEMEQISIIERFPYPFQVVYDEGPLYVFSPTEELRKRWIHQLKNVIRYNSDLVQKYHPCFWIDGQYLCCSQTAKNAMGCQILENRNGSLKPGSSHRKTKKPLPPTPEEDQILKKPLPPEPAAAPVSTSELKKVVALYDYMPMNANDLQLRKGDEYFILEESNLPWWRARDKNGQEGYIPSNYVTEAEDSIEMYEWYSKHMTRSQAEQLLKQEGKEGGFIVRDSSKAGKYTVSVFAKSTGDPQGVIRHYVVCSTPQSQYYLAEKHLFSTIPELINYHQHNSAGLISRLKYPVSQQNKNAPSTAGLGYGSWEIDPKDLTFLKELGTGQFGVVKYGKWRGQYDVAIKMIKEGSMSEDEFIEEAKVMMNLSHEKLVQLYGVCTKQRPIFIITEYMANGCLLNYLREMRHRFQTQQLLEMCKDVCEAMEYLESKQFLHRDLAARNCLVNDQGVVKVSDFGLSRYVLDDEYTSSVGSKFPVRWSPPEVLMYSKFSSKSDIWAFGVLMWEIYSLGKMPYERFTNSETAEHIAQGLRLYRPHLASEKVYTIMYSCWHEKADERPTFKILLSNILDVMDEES
Sequence of human wt JAK3 (P52333 whole entry): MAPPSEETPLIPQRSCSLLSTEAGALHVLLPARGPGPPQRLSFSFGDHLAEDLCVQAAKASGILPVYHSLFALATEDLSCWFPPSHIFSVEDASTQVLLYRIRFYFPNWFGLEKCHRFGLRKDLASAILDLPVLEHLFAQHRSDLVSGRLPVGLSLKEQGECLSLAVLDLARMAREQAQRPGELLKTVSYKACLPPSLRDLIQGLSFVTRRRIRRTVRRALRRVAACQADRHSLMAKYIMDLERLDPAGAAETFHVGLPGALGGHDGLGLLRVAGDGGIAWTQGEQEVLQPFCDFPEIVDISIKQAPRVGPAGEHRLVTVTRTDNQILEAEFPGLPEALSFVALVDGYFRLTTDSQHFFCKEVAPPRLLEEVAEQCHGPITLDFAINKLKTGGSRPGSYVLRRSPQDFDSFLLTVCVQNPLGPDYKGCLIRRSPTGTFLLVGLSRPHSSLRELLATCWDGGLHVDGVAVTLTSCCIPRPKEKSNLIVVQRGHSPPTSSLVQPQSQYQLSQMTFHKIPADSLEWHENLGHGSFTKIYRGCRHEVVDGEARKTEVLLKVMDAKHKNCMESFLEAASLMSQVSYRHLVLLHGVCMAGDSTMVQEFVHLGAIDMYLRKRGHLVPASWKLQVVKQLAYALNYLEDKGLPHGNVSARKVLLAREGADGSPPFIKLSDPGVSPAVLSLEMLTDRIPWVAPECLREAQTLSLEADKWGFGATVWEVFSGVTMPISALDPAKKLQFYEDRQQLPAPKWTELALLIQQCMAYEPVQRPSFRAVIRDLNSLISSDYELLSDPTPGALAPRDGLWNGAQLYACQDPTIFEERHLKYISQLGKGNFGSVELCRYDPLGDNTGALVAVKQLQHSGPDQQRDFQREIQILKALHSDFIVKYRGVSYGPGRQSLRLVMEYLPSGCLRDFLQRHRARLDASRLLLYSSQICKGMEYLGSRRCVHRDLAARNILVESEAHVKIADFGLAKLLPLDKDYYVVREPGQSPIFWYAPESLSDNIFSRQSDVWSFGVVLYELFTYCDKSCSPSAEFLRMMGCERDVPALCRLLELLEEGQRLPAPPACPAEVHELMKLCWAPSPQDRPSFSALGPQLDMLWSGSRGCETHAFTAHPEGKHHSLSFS
Sequence of BTK (Q06187 whole entry): as the sequence (Q06187 whole entry) above
Sequence of JAK2 (O60674 809-1132): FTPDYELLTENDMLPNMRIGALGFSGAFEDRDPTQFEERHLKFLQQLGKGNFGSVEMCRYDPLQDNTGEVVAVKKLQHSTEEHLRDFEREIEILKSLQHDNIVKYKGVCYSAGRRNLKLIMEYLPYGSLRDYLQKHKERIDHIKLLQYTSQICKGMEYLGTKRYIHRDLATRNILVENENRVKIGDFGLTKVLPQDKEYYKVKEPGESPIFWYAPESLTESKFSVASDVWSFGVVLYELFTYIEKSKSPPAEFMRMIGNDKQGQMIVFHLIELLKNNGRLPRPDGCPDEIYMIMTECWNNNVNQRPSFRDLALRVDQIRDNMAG
Sequence of JAK3 (P52333 781-1124): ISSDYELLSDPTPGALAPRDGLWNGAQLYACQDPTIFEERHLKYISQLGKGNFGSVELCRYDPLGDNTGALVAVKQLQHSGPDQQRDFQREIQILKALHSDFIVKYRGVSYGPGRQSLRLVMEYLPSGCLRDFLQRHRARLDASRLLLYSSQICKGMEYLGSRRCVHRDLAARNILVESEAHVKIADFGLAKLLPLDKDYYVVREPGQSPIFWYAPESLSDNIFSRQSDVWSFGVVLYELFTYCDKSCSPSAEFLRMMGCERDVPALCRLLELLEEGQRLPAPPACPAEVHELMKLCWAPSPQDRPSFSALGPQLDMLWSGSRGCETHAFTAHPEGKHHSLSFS

Row | Compound | IC50 [1] [µM] | Selectivity A431/H1975 [2] | IC50 [2] [µM] | other results
1 | C=CC(=O)Nc1cccc(Oc2nc(Nc3ccc(N4CCN(C)CC4)nc3)nc3[nH]ccc23)c1 [Compound 2, N-(3-(2-(6-(4-methylpiperazin-1-yl)pyridin-3-ylamino)-7H-pyrrolo[2,3-d]pyrimidin-4-yloxy)phenyl)acrylamide] | 0.3 | 300.00 | 0.001 | IC50 (human wt JAK3): 0.2 µM and 0.36 µM; IC50 (human wt BTK): 0.012 µM and 0.059 µM; IC50 (BTK): 0.362 nM; IC50 (JAK2): 2060 nM; IC50 (JAK3): 0.0365 nM
2 | C=CC(=O)Nc1cccc(Oc2nc(Nc3ccc(N4CCN(C)CC4)cc3)nc3c2ccn3CO)c1 [Compound 4, N-(3-((7-(hydroxymethyl)-2-((4-(4-methylpiperazin-1-yl)phenyl)amino)-7H-pyrrolo[2,3-d]pyrimidin-4-yl)oxy)phenyl)acrylamide] | 10.9 | 162.69 | 0.067 | 
3 | C=CC(=O)Nc1cccc(Oc2nc(Nc3ccc(N4CCN(C)CC4)nc3)nc3c2ccn3CO)c1 [Compound 5, N-(3-(7-(hydroxymethyl)-2-(6-(4-methylpiperazin-1-yl)pyridin-3-ylamino)-7H-pyrrolo[2,3-d]pyrimidin-4-yloxy)phenyl)acrylamide] | 27.5 | 113.17 | 0.243 | 
4 | C=CC(=O)Nc1cccc(Oc2nc(Nc3ccc(N4CCN(C)CC4)c(F)c3)nc3c2ccn3CO)c1 [Compound 6, N-(3-(2-(3-fluoro-4-(4-methylpiperazin-1-yl)phenylamino)-7-(hydroxymethyl)-7H-pyrrolo[2,3-d]pyrimidin-4-yloxy)phenyl)acrylamide] | 9.27 | 232.91 | 0.0398 | 
5 | C=CC(=O)Nc1cccc(Oc2nc(Nc3ccc(N4CCN(C)CC4)cc3)nc3c2ccn3CCF)c1 [Compound 7, N-(3-(7-(2-fluoroethyl)-2-(4-(4-methylpiperazin-1-yl)phenylamino)-7H-pyrrolo[2,3-d]pyrimidin-4-yloxy)phenyl)acrylamide] | > 20 |  | 12.4 | 
6 | C=CC(=O)Nc1cccc(Oc2nc(Nc3ccc(NC4CN(CCF)C4)cc3OC)nc3[nH]ccc23)c1 [Compound 34, N-(3-(2-(4-(1-(2-fluoroethyl)azetidin-3-ylamino)-2-methoxyphenylamino)-7H-pyrrolo[2,3-d]pyrimidin-4-yloxy)phenyl)acrylamide] | 2.02 | 92.95 | 0.0217 | 
7 | COc1cc2ncnc(Nc3ccc(F)c(Cl)c3)c2cc1OCCCN1CCOCC1 [Gefitinib] |  |  |  | T-C (days) at 300 mm^3 ([3]; 100 mg/kg po qd): >14 days; T/C (%) ([3]; 100 mg/kg po qd): 8.7%; Tumor Weight (g) at day 23(14) ([3]; 100 mg/kg po qd): 0.13 ± 0.03 g; Mouse Weight (g) at day 25(14) ([3]; 100 mg/kg po qd, Mean ± SEM): 21.56 ± 0.51 g; Tumor Size (mm^3) at day 25(14) ([3]; 100 mg/kg po qd, Mean ± SEM, Table 16): 154 ± 33 mm^3; Tumor volume ([3]; day 11, Mean ± SEM): 239.83 ± 23.30 mm^3; Tumor volume ([3]; day 18, Mean ± SEM): 139.70 ± 26.94 mm^3; Tumor volume ([3]; day 21, Mean ± SEM): 139.70 ± 22.07 mm^3; Tumor volume ([3]; day 25, Mean ± SEM): 154.79 ± 32.62 mm^3

Source: patent publication US9586965B2, “Pyrrolo[2,3-d]pyrimidine compounds as inhibitors of protein kinases” (ACEA BIOSCIENCES INC., priority 2012, dated 2017)
